Measurements from patent publication US20110111986A1, “NOVEL SACCHARIDE PRIMER AND USE THEREOF” (KEIO UNIVERSITY, priority 2007, published 2011).

System: B16 cells
Test: Sugar chain extension reaction in B16 cells with saccharide primer (HPTLC, densitometer)
Format: cell-based, mouse
Conditions: for extended sugar chain product detected by HPTLC: B16 cells 2.0×10^6 cells/plate, 48 hours, medium fraction and cell fraction, resorcinol staining
Protocol: When a saccharide primer is administered to the sugar chain-synthesizing cell described above, this cell reacts with the saccharide primer, and as a result, a desired sugar chain can be obtained. Specifically, a saccharide primer is administered at a concentration of 50 μM to a medium in which sugar chain-synthesizing cells (for example, B16 cells) are cultured, and the mixture is incubated at 37° C. for about 2 days. During that period, the saccharide primer is introduced into the cells, a sugar is added to the saccharide primer, and various types of sugar chains are produced in the culture liquid. The sugar chains are recovered from the culture liquid by a method known to a person skilled in the art, for example, a lectin column or a commercially available sugar chain purification kit.
First, the saccharide primer Lac-C12 and the saccharide primer Lac-C13:1(2) were added to each medium in which B16 cells (mouse melanoma cells strongly expressing GM3) (Japan Health Science Foundation, Health Science Research Resources Bank) were plated at a concentration of 2.0×10^6 cells/plate, and then incubated for 48 hours. Then, the medium and the cells were separated by centrifugation, and each of collected substances was analyzed with HPTLC.
With regard to the saccharide primer Lac-C12 and the saccharide primer Lac-C13:1(2), their sugar chain extension efficiencies in B16 cells and amounts of the saccharide primers taken into the cells were compared by a quantitative analysis with a densitometer.

Compound	extended sugar chain product detected by HPTLC	sugar chain extension efficiency (amounts of extended sugar chain products) (B16 cells, medium fraction, 48 hours incubation, densitometer quantitation, compared with Lac-C12, listed as Lac-O-C13:1(2))
CCCCCCCCCC/C=C/CO[C@@H]1OC(CO)[C@@H](O[C@@H]2OC(CO)[C@H](O)C(O)C2O)C(O)C1O (stereo partly drawn) [Lac-C13:1(2), 1-O-(trans-2-tridecenyl)-4-O-(β-D-galactopyranosyl)-β-D-glucopyranoside]	a product X was confirmed in both the medium fraction and the cell fraction	equal to or greater than those obtained by using a conventional primer
CCCCCCCCCCCCO[C@@H]1OC(CO)[C@@H](O[C@@H]2OC(CO)[C@H](O)[C@H](O)C2O)[C@H](O)C1O (stereo partly drawn) [Lac-C12, reference compound]	a product X′ was confirmed in both the medium fraction and the cell fraction	–
